# Test results: publication PMC6687188, “Novel lactate dehydrogenase inhibitors with in vivo efficacy against Cryptosporidium parvum” (PLoS Pathogens, 2019)
# Molecular target: recombinant CpLDH protein (Cryptosporidium parvum, UniProt Q9GT92, F198L/K295E/R251K)
row,SMILES,MEAN CpLDH INHIBITION (%)
1,Nc1ccccc1C(=O)NC(=O)Nc1ccc(Oc2ncc(Br)cn2)c(Cl)c1 [NSC639828],-42.32%
2,Cc1nc(Nc2ccc(Cl)c(Cl)c2)sc1C(/C=C/c1ccc2c(c1)OCO2)=N/Nc1ccc([N+](=O)[O-])cc1[N+](=O)[O-] [NSC640335],-79.51%
3,Cc1ccc(Nc2nc(C)c(C(/C=C/c3ccc(/C=C/C(=N\NC(=O)C[n+]4ccccc4)c4sc(Nc5ccc(C)cc5[N+](=O)[O-])nc4C)cc3)=N/NC(=O)C[n+]3ccccc3)s2)c([N+](=O)[O-])c1.Cl [NSC640342],-89.53%
4,CN(C)C[C@H]1CC[C@@H](CN(C)C)C1=O.Cl [NSC640391],-1.88%
5,Cc1nc(-c2cccnc2)sc1C(=O)/C=C/c1ccc(Cl)cc1Cl [NSC640580],-13.66%
6,Cc1nc(-n2nc(-c3ccccc3)cc2-c2ccccc2)sc1C(=O)/C=C/c1ccc(Cl)c(Cl)c1 [NSC640584],-6.68%
7,CC1=CC(C)(C)N=C2SC(c3ccc(N)cc3)=NN12 [NSC640624],-5.57%
8,S=C(Nc1ccccc1)N(/N=C/C=C/c1ccccc1)c1nnc(-c2ccccc2)c(-c2ccccc2)n1 [NSC640637],-17.02%
9,BrC(/C=N/Nc1nnc(-c2ccccc2)c(-c2ccccc2)n1)C(Br)c1ccccc1 (stereo not drawn) [NSC640638],-14.60%
10,N#Cc1ccccc1NC(=O)C(=O)C(C(=O)c1ccccc1F)C1OC(=O)c2ccccc21 (stereo not drawn) [NSC640974],-7.97%
11,Cc1ccc(C)c(NC(=O)C(=O)C(C(=O)c2ccc3ccccc3c2)C2OC(=O)c3ccccc32)c1 (stereo not drawn) [NSC640985],-66.15%
12,Cc1ccccc1NC(=O)C(=O)C(C(=O)c1ccccc1F)C1OC(=O)c2ccccc21 (stereo not drawn) [NSC641228],-51.30%
13,O=C(NC1=C(Cl)C(=O)c2ccccc2C1=O)C(=O)C(C(=O)c1ccc2ccccc2c1)C1OC(=O)c2ccccc21 (stereo not drawn) [NSC641233],-51.96%
14,COC(=O)c1ccccc1NC(=O)C(=O)CC(=O)c1ccccc1NC1=CC(=O)C(=O)c2ccccc21 [NSC641240],-190.19%
15,O=C(CC(=O)c1ccccc1NC1=Cc2ccccc2C(=O)C1=O)C(=O)NC1=C(Cl)C(=O)c2ccccc2C1=O [NSC641245],-19.61%
16,O=C1C=C(Nc2ccccc2C(=O)CC(=O)C(=O)Nc2ccc(Cl)c(Cl)c2)c2ccccc2C1=O [NSC641250],-16.86%
17,O=C1C=C(Nc2ccccc2C(=O)CC(=O)C(=O)Nc2ccc(Cl)cc2)c2ccccc2C1=O [NSC641253],-12.80%
18,COc1ccc(/C(=N/O)C(c2ccc(OC)cc2)C2C(=O)Oc3ccccc32)cc1 (stereo not drawn) [NSC641607],-85.63%
19,CCc1cccc(C(C)C)c1NC(=O)/C(=N\NC(N)=O)C(C(=O)OC)c1cnc2ccccc2n1 (stereo not drawn) [NSC642033],-12.26%
20,COC(=O)C(=O)C(C(=O)C(=O)Nc1cc(C)ccc1C)c1nc2ccc(C(=O)c3ccccc3)cc2[nH]c1=O (stereo not drawn) [NSC642040],-9.38%
21,Cc1nc(C(N)=S)sc1C(=O)CC(=O)C(=O)Nc1c(C(C)C)cccc1C(C)C [NSC642048],-4.29%
22,O=C(c1nc2ccc(Cl)cc2[nH]c1=O)C(O)c1ccc2c(c1)OCO2 (stereo not drawn) [NSC642649],-27.23%
23,N#CC(C#N)=Cc1ccc(Oc2ccccc2)cc1 [NSC643028],-52.45%
24,N#CC(C#N)=Cc1cccc(Oc2ccccc2)c1 [NSC643031],-51.68%
25,O=C1c2ccccc2C(=O)C1C(c1ccc([N+](=O)[O-])cc1)C1C(=O)c2ccccc2C1=O [NSC643148],-12.75%

row,SMILES,MEAN CpLDH INHIBITION (%)
1,CN(C)c1ccc(/C=C2\CCc3ccccc3C2=O)cc1Br [NSC643162],-31.17%
2,CN(C)c1ccc(/C=C2\Cc3ccccc3C2=O)cc1Br [NSC643163],-30.02%
3,CN(C)c1ccc(/C=C/C(=O)c2ccccc2)cc1Br [NSC643164],-21.20%
4,COc1ccc(/C=C2\Cc3ccccc3C2=O)cc1OC [NSC643174],-15.39%
5,COc1ccc(/C=C2\CCc3ccccc3C2=O)cc1OC [NSC643175],-25.23%
6,N#C/C(=C\c1ccc2ccccc2c1)C(=O)c1ccccc1 [NSC643186],-12.83%
7,CN(C)c1ccc(/C=C/C(=O)[O-])cc1.CN(C)c1ccc(/C=C/C(=O)[O-])cc1.[Cu+2] [NSC643351],-4.10%
8,COc1ccc(N=Cc2ccc(N(CCC#N)S(=O)(=O)c3ccccc3)cc2C)cc1 [NSC643599],-33.57%
9,CCOC(=O)/C(=C/c1ccc(N(C)C)cc1)N(CC)CC [NSC643774],-24.42%
10,CCCC/C=C/C=C/C=C/CCCCCCCC(=O)OCC(COC(=O)CCCCCCC/C=C/C1C=CC(CCCC)C(C(=O)O)C1C(=O)O)OC(=O)CCCCCCC/C=C/C=C/C=C/CCCC.OCCNCO (stereo not drawn) [NSC643834],-1.59%
11,CCOC(=O)C1=C(C)NC(=S)NC1c1ccccc1 (stereo not drawn) [NSC643910],-38.49%
12,Cc1ccccc1NC(=O)C(=O)C(c1cnc2ccc([N+](=O)[O-])cc2n1)[N+](=O)[O-] (stereo not drawn) [NSC644735],-56.47%
13,O=C(Nc1cccc(C(F)(F)F)c1)C(=O)C(C(=O)c1ccc(Cl)c(Cl)c1)C1OC(=O)c2ccccc21 (stereo not drawn) [NSC644794],-17.50%
14,Clc1ccc(-c2c(C3=NCCCN3)nnn2-c2ccc(Cl)cc2)cc1 [NSC645033],-3.66%
15,CC(C)OP(=O)(OC(C)C)C(N(C)C)P(=O)(OC(C)C)OC(C)C.[Cl][Sn]([Cl])([Cl])[c]1ccccc1 [NSC645567],-28.84%
16,CN(C)C(=S)/N=c1\ssc(=S)n1Cc1ccccn1 [NSC645617],-28.16%
17,Oc1cc(-n2cccn2)c(O)cc1-n1cccn1 [NSC645987],-40.48%
18,CCOC(OC1=C(C#N)CCC1)C(C)[Se]c1ccccc1 (stereo not drawn) [NSC646189],-21.95%
19,CCOC(OCC)C(CC)[Se]c1ccccc1[N+](=O)[O-] (stereo not drawn) [NSC646200],-24.52%
20,COc1cc(/C=C(\OC(C)=O)c2ccc3c(c2)OCO3)cc(OC)c1OC [NSC647363],-3.74%
21,CN/N=C(\C)C(CN1CCCCC1)C(C1=C(O)c2ccccc2OC1)c1ccccc1.Cl (stereo not drawn) [NSC647418],-56.81%
22,O=C1Oc2ccccc2C1C/C(=N\Nc1ccccc1)c1ccccc1O (stereo not drawn) [NSC647613],-29.39%
23,COc1cc(CC(=O)c2cc3c(cc2-c2ccccc2)OCO3)cc(OC)c1OC [NSC648419],-12.60%
24,COc1cc(/C=C(\C)c2ccc3c(c2)OCO3)cc(OC)c1OC [NSC648422],-69.44%
25,Cc1nc2c(o1)C(=O)c1ccccc1C2=Nc1ccccc1 [NSC650573],-21.28%

row,SMILES,MEAN CpLDH INHIBITION (%)
1,Cc1ccc(S(=O)(=O)N2CCSCCSCCSCCSCC2)cc1 [NSC650792],-46.61%
2,CCC(=O)OC1CCn2c1nc1c2C(=O)C(C)=C(N2CC2)C1=O (stereo not drawn) [NSC651079],-28.42%
3,CC1=C(N2CC2)C(=O)c2nc3n(c2C1=O)CCC3OC(=O)CCl (stereo not drawn) [NSC651080],-28.90%
4,COCC(=O)OC1CCn2c1nc1c2C(=O)C(C)=C(NC(C)=O)C1=O (stereo not drawn) [NSC651084],-15.88%
5,OCc1ccc(-c2ccc(-c3ccc(CO)s3)o2)s1 [NSC652287],-15.92%
6,OCCNCN(CNCCO)c1nc(N(CNCCO)CNCCO)nc(N(CNCCO)CNCCO)n1 [NSC653000],-58.42%
7,C[CH2][Ge]([CH2]C)([CH2]C)[O]C(=O)CCC(=O)[O][Ge]([CH2]C)([CH2]C)[CH2]C [NSC653558],-17.98%
8,Cc1cc(NC(=O)NC(=O)c2ccccc2NC(=O)CN)ccc1Oc1ncc(Br)cn1.Cl [NSC654259],-46.44%
9,COC(=O)c1ccc(NCc2cc(O)ccc2O)cc1 [NSC654705],-2.14%
10,O=C(O)c1cc(CCc2cc(O)ccc2O)ccc1O [NSC655255],-35.82%
11,CCN1CCC(O)(/C=C/c2ccc(C)cc2)C(C(=O)/C=C/c2ccc(C)cc2)C1.Cl (stereo not drawn) [NSC657298],-42.34%
12,COc1ccccc1/C=C1\Sc2scc(-c3cccc([N+](=O)[O-])c3)[n+]2C1=O.[Cl-] [NSC657446],-8.01%
13,Cc1cc(O)c(/C=N/C(N)=S)c(=O)o1 [NSC657449],-13.90%
14,Oc1[nH]c2ccccc2c1N=Nc1nc(-c2ccc(Br)cc2)cs1 [NSC657456],-18.36%
15,COc1cc(/C=C2\S/C(=N/Nc3nc(-c4ccc(Br)cc4)cs3)NC2=O)cc(OC)c1OC [NSC657457],-150.87%
16,O=C1/C(=C/c2ccc([N+](=O)[O-])cc2)Sc2scc(-c3cccc([N+](=O)[O-])c3)[n+]21.[Cl-] [NSC657598],-68.44%
17,CCCn1c(=O)c2ccccc2[n+]2c(-c3ccc([N+](=O)[O-])cc3)csc12.[Br-] [NSC657603],-45.82%
18,Cc1cccc(C)c1NC(=O)C(=O)C(c1ccccc1Cl)S(=O)(=O)Cc1ccccc1Cl (stereo not drawn) [NSC657722],-170.05%
19,O=[N+]([O-])c1ccc2c(c1)/C(=N/N=C1c3ccccc3Cc3ccccc31)c1cc([N+](=O)[O-])cc([N+](=O)[O-])c1-2 [NSC658139],-4.51%
20,O=C1C=C(N2CCNCC2)C(=O)c2c(O)ccc(O)c21 [NSC658144],-3.51%
21,CC(=O)c1sc2[n+](c1C)C(=O)/C(=C\c1ccccc1Cl)S2 [NSC658285],-36.39%
22,CCOC(=O)c1sc2[n+](c1C)C(=O)/C(=C/c1ccc([N+](=O)[O-])cc1)S2.[Cl-] [NSC658293],-21.86%
23,CCn1c(O)c(C=Nc2ccccc2)s/c1=N/Nc1ncc(CC(=O)Nc2ccccc2C)s1 [NSC658350],-19.59%
24,CN(C)CCCCN1CCc2c(n(C)c3ccccc23)C1=O.Cl [NSC658388],-30.45%
25,CC(=O)N=C1N(/C=C2\C(=O)Oc3ccccc3C2=O)C(=O)/C(=C/c2ccccc2Cl)N1C [NSC658494],-56.68%
